Measured values taken from patent US20230227445A1, “BENZAMIDE COMPOUND AND USE THEREOF” (HUMANWELL HEALTHCARE (GROUP) CO., LTD., priority 2020, published 2023).
pIC50: −log10 of the molar value.

Assays:
[1] = test system: histamine/citric acid-stimulated cough in guinea pig; assay: Efficacy test for histamine/citric acid-stimulated cough in guinea pig; assay type: in vivo; conditions: guinea pigs, nasal drops, 0.17 mg/kg to 1.5 mg/kg, histamine/citric acid stimulation
Method: Guinea pigs were adaptively fed for 3 days to 7 days before being grouped. When the body weight of the guinea pigs reached 300 g to 400 g, they were numbered and randomly grouped.
Compounds or an excipient were administered to guinea pigs by nasal drops 0.25 hour to 24 hours before the start of the cough assessment. The administration dose of the test sample ranged from 0.17 mg/kg to 1.5 mg/kg. For the cough assessment, the guinea pigs were placed in a whole-body volume scan box for adaptation, and then, they were provided with histamine nebulization and then citric acid nebulization. […]
(§1) The experimental data was statistically analyzed by one-way ANOVA to analyze and compare data of the various groups. The statistical analysis result p<0.05 was regarded as a significant difference. The t-test was employed for difference comparison between any two.

[2] = Pharmacokinetic assay in mouse; assay type: in vivo, ICR mice; conditions: for pharmacokinetic properties in mouse compared with Reference compound 1 and Reference compound 2 (in words): mouse assay, vs Reference compounds 1 and 2; for AUC(0-t) / Cmax / Tmax / half-life: mouse, plasma, po, male ICR mice, intragastric administration, 10 mg/kg; for half-life: read-out: T½ (converted)
Method: For a mouse pharmacokinetic assay, male ICR mice (20 g to 25 g) were selected and fasted overnight. Three mice were intragastrically administered with 10 mg/kg of the corresponding compound. The blood of the mice was collected before the administration and at 15 min, 30 min, 1 h, 2 h, 4 h, 8 h, and 24 h after the administration. The blood samples were centrifuged at 4° C. for 6 minutes at 6,800 g, plasma was collected and stored at −80° C.
The supernatant was mixed with 3 times the amount of water, and an appropriate amount of the mixed solution was taken for LC-MS/MS analysis. The primary pharmacokinetic parameters were analyzed by WinNonlin 7.0 software non-atrioventricular model.

[3] = test system: rat taste; assay: Taste test in rat (water vs 0.3 mM aqueous quinine solution intake); assay type: in vivo, SD rats; conditions: for Water/aqueous quinine solution (ratio of water intake to aqueous quinine solution intake): SD rats, 30 mg/kg i.p, 0.3 mM quinine, 15 min supply half an hour after administration; for interference on rat taste compared with Reference compound 1 (in words): vs positive reference compound
Method: SD rats were administered with the corresponding compound after 3 days of overnight water prohibition training. Each rat was supplied with 1 bottle of water and 1 bottle of 0.3 mM aqueous quinine solution half an hour after the administration. After 15 min of water supply, the bottles were removed. The intake amount of water and the intake amount of the 0.3 mM aqueous quinine solution were measured, respectively. The taste influence of the compound on SD rats was evaluated based on the difference between the intake amount of water and the intake amount of the aqueous quinine solution.

[4] = Pharmacokinetic assay in canine; assay type: in vivo, Beagle dogs; conditions: for half-life (in words) / clearance rate (in words) / exposure (in words) / pharmacokinetic characteristics compared with the reference compound (in words): canine; for exposure (in words): oral and intravenous administrations; for pharmacokinetic characteristics compared with the reference compound (in words): vs reference compound; for AUC(0-t) / Cmax / Tmax / half-life / clearance / Vd: dog, plasma, male Beagle dogs; for Vd: read-out: Vz
Method: For a canine pharmacokinetic assay, male Beagle dogs (8 kg to 10 kg) were selected and fasted overnight. Three Beagle dogs were intragastrically administered with 5 mg/kg of the corresponding compound. Another 3 Beagle dogs were intravenously administered with 1 mg/kg of the corresponding compound. The blood of the dogs was collected before the administration and at 15 min, 30 min, 1 h, 2 h, 4 h, 8 h, and 24 h after the administration. The blood samples were centrifuged at 4° C. for 6 minutes at 8,000 r/min, plasma was collected and stored at −20° C. […] The supernatant was taken and mixed with 3 times the amount of water, and an appropriate amount of the mixed solution was taken for LC-MS/MS analysis. The primary pharmacokinetic parameters were analyzed by WinNonlin 7.0 software non-atrioventricular model.

[5] = test system: ATP/citric acid-stimulated cough in guinea pig; assay: Efficacy test for ATP/citric acid-stimulated cough in guinea pig; assay type: in vivo; conditions: guinea pigs, nasal drops, 0.17 mg/kg to 1.5 mg/kg, ATP/citric acid stimulation
Method: Guinea pigs were adaptively fed for 3 days to 7 days before being grouped. When the body weight of the guinea pigs reached 300 g to 400 g, they were numbered and randomly grouped. Compounds or an excipient were administered to guinea pigs by nasal drops 0.25 hour to 24 hours before the start of the cough assessment. The administration dose of the test sample ranged from 0.17 mg/kg to 1.5 mg/kg. For the cough assessment, the guinea pigs were placed in a whole-body volume scan box for adaptation, and then provided with ATP nebulization, and a few minutes later, they were provided with citric acid nebulization. The cough times within 15 minutes and the cough latency were recorded from the beginning of citric acid nebulization.
as §1

[6] = target: T1, hP2X3 receptor (Homo sapiens, UniProt P56373); assay: Antagonistic activity against hP2X3 receptor by FLIPR calcium flow assay; assay type: cell-based; conditions: for pIC50: human cells stably transfected with hP2X3, agonist α,β-meATP 400 nM; for antagonistic activity against hP2X3 receptor compared with Reference compound 1 (in words): vs Reference compound 1
T1 construct: expressed in transfected cells
T1 sequence (P56373 1-397): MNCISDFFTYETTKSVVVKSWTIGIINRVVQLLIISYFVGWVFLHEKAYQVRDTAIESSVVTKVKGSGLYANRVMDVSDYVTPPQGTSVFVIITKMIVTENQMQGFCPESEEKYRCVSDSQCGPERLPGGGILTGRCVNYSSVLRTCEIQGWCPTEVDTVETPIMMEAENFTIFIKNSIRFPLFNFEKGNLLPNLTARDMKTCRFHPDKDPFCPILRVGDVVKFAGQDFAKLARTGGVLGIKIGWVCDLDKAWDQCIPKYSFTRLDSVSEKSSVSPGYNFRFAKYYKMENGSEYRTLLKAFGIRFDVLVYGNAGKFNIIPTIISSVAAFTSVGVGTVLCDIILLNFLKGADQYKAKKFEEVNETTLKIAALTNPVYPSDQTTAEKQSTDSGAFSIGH
Method: The antagonistic activity of hP2X3 antagonists against hP2X3 receptor was evaluated by means of FLIPR Calcium 4 Assay Kit (Molecular Devices, R8141) and FLIPR TETRA instrument (Molecular Devices, 0296) by detecting calcium flow signals. 24h before the experiment, human cells, which had been stably transfected with hP2X3 receptors, were plated on a 384-well plate at 2×10^5 cells/mL, with 50 μL of cell suspension per well, and the plate was cultured in an incubator (37° C., 5% CO2) for 16 h to 24 h. The test compound solution (20 to 50 mM DMSO stock solution) with a concentration of 180 times the required concentration was prepared using DMSO. The stock solution was added to the 384-well plate at 500 nL per well, supplemented with 30 μL of FLIPR Assay buffer (1×HBSS+2 mM CaCl2 20 mM HEPES containing 1.26 mM Ca^2+). The 384-well plate was shaken for 20 to 40 min to mix evenly. An agonist (α, β-meATP) with a concentration of 3 times the required concentration (required final concentration was 400 nM) was prepared with FLIPR Assay buffer, and was added to another 384-well plate at 45 μL per well. The culture plate, on which the cells were plated one day ago, was taken, the cell supernatant was sucked and discarded, each well was added with 30 μL of Dye (FLIPR® Calcium 4 Assay Kit, diluted with FLIPR buffer), and then the plate was incubated for 1h. 15 μL of compound was added to each well of cells (using FLIPR sample injector). After 15 minutes, 22.5 μL of the agonist was added to each well, and the fluorescence signal (exciting light wavelength ranging from 470 nm to 495 nm, and emission wavelength ranging from 515 nm to 575 nm) was detect. […] An inhibition effect curve of the compound was fitted on the software GraphpadPrism6, and the IC50 value was calculated.

[7] = Pharmacokinetic assay in rat; assay type: in vivo, SD rats; conditions: rat, plasma, po, male SD rats, intragastric administration, 10 mg/kg
Method: For a rat pharmacokinetic assay, male SD rats (180 g to 240 g) were selected and fasted overnight. Three rats were intragastrically administered with 10 mg/kg of the corresponding compound. The blood of the rats was collected before the administration and at 15 min, 30 min, 1 h, 2 h, 4 h, 8 h, and 24 h after the administration. The blood samples were centrifuged at 4° C. for 6 minutes at 8,000 r/min, and plasma was collected and stored at −20° C. Plasma at each time point was taken, and added with 3 to 5 times the amount of an internal standard-containing acetonitrile solution to mix, and the mixture was vortex mixed for 1 minute, and centrifuged at 4° C. for 10 minutes at 13,000 r/min. The supernatant was taken and mixed with 3 times the amount of water, and an appropriate amount of the mixed solution was taken for LC-MS/MS analysis. The primary pharmacokinetic parameters were analyzed by WinNonlin 7.0 software non-atrioventricular model.

[8] = po, intragastric administration, 5 mg/kg
[9] = intravenous administration, 1 mg/kg

Row | AUC(0-t) [2] [ng·h/mL] | Cmax [2] [ng/mL] | Tmax [2] [h] | half-life [2] [h] | Water/aqueous quinine solution (ratio of water intake to aqueous quinine solution intake) [3] | half-life (in words) [4] | clearance rate (in words) ([4]; intravenous administration) | exposure (in words) [4] | pharmacokinetic characteristics compared with the reference compound (in words) [4] | AUC(0-t) [4, 8] [ng·h/mL] | Cmax [4, 8] [ng/mL] | Tmax [4, 8] [h] | half-life [4, 8] [h] | pIC50 [6] | antagonistic activity against hP2X3 receptor compared with Reference compound 1 (in words) [6] | SMILES | Average cough times within 15 min [1] | Cough inhibition rate vs. solvent [1] [%] | pharmacokinetic properties in mouse compared with Reference compound 1 and Reference compound 2 (in words) [2] | interference on rat taste compared with Reference compound 1 (in words) [3] | Average cough times within 15 min [5] | other results
1 | 13800 | 2950 | 1 | 2.35 | 22.9 | long half-life | low clearance rate | high exposure | better pharmacokinetic characteristics | 12600 | 1030 | 1 | 13.4 | 7.32 | better antagonistic activity | Cc1cnc(-c2cc(O[C@H](C)[C@@H](C)O)cc(C(=O)N[C@H](C)c3cnc(C(F)(F)F)nc3)c2F)s1 [Compound I-30, 2-fluoro-5-(((2R, 3R)-3-hydroxybutan-2-yl)oxy)-3-(5-methylthiazol-2-yl)-N—((R)-1-(2-(trifluoromethyl)pyrimidin-5-yl)ethyl)benzamide] | 9.8 | 63.2 | significantly improved pharmacokinetic properties | significantly less interference on rat taste | 7.1 | AUC(0-t) [4, 9]: 2820 ng·h/mL; clearance [4, 9]: 4.33 mL/min/kg; half-life [4, 9]: 13 h; Vd [4, 9]: 4.88 L/kg; Cough inhibition rate vs. solvent [5]: 64.1%
2 | – | – | – | – | 29.4 | – | – | – | – | – | – | – | – | 7.17 | better antagonistic activity | Cc1cnc(-c2cc(O[C@@H](C)[C@@H](C)O)cc(C(=O)N[C@H](C)c3cnc(C(F)(F)F)nc3)c2F)s1 [Compound I-27, 2-fluoro-5-(((2S, 3R)-3-hydroxybutan-2-yl)oxy)-3-(5-methylthiazol-2-yl)-N—((R)-1-(2-(trifluoromethyl)pyrimidin-5-yl)ethyl)benzamide] | 8.9 | – | significantly improved pharmacokinetic properties | significantly less interference on rat taste | 6.3 | –
3 | 14900 | 4100 | 1 | 2.23 | 12.0 | long half-life | low clearance rate | high exposure | better pharmacokinetic characteristics | 8730 | 1160 | 1 | 7.26 | 7.24 | better antagonistic activity | Cc1cnc(-c2cc(O[C@H](C)[C@H](C)O)cc(C(=O)N[C@H](C)c3cnc(C(F)(F)F)nc3)c2F)s1 [Compound I-29, 2-fluoro-5-(((2R, 3S)-3-hydroxybutan-2-yl)oxy)-3-(5-methylthiazol-2-yl)-N—((R)-1-(2-(trifluoromethyl)pyrimidin-5-yl)ethyl)benzamide] | 10.8 | 59.4 | significantly improved pharmacokinetic properties | – | – | AUC(0-t) [4, 9]: 2010 ng·h/mL; clearance [4, 9]: 7.5 mL/min/kg; half-life [4, 9]: 7.64 h; Vd [4, 9]: 5 L/kg
4 | – | – | – | – | – | – | – | – | – | – | – | – | – | – | – | Cc1cnc(-c2cc(O[C@@H]3CCOC3)cc(C(=O)N[C@H](C)c3cnc(C(F)(F)F)nc3)c2)s1 [Reference compound 1, reference compound] | – | – | – | – | 8.1 | AUC(0-t) [7]: 3330 ng·h/mL; Cmax [7]: 417 ng/mL; Tmax [7]: 2 h; half-life ([7]; read-out: T½ (converted)): 4.01 h
